Experimental data published in patent US9200286B2 (THE RESEARCH FOUNDATION FOR THE STATE UNIVERSITY OF NEW YORK, priority 2010, dated 2015).
Like-named read-outs stand apart in the source and are kept apart here.

How the values were obtained:
GluA2Qflip AMPA receptor = GluA2Qflip AMPA receptor (Rattus norvegicus, UniProt P19491); conditions: for Ki: from A/A(I) vs inhibitor concentration; for inhibition by A/A(I), ratio of whole-cell current amplitude in absence and presence of aptamer: 1 μM aptamer (FIG. 3, FIG. 5)
Procedure: The putative inhibitory property of the four sequences was then functionally tested by the use of whole-cell current recording with GluA2Qflip expressed in HEK-293 cells. […] The current was recorded at −60 mV, pH 7.4 and 22° C. with the same HEK-293 cells expressing GluA2Qflip that were used for selection.
The procedure for whole-cell current recording used to assay putative aptamers is known in the art. For the present invention, all recordings were at −60 mV and 22° C. The recording electrode was filled with the buffer (in mM): 110 CsF, 30 CsCl, 4 NaCl, 0.5 CaCl2, 5 EGTA, and 10 HEPES (pH 7.4 adjusted by CsOH). The extracellular buffer composition used is described supra. All other buffers used were previously described. The whole-cell current was recorded using an Axopatch 200B amplifier at a cutoff frequency of 2-20 kHz by a built-in, four-pole Bessel filter and digitized at 5-50 kHz sampling frequency using a Digidata 1322A (Molecular Devices). pClamp 8 (Molecular Devices, Sunnyvale Calif.) was used for data acquisition.
Using whole-cell recording, the putative inhibitory property for each aptamer was tested with HEK 293 cells expressing GluA2Qflip receptors and expressed as the ratio of the whole-cell current amplitude in the absence and presence of an aptamer, that is, A/A(I). The current was recorded at −60 mV, pH 7.4 and 22° C. with the same HEK-293 cell expressing GluA2Qflip.
Selected RNA sequences were assayed using whole-cell current recording with GluA2Qflip. […] The third round of the library or “pool 3” at 1 μM was used as a control. The ‘*’ indicates P≦0.05 from the two-tailed Student's t test (H0: μ=μ0=1, 1 being the theoretical value of no inhibition, marked as the dashed line).
The ratio of the whole-cell current amplitude in the absence and presence of a putative aptamer or A/A(I) as a function of aptamer concentration was used to independently measure inhibition constants (29), as illustrated in Equations 7a and 7b (29). These equations were derived based on the same general mechanism of channel opening described earlier. KI, app is the apparent inhibition constant for the inhibitor;
Thus the inhibition constant for the closed-channel conformation or state was determined from A/A(I) vs. inhibitor concentration by Equations 7a and 7b. Likewise, at a saturating ligand concentration (i.e., L>>K1), the majority of the receptors were in the open-channel state. Thus the inhibition constant for the open-channel state was determined.
The original cDNAs in pBlueScript encoding rat GluA1, 2 and 3 AMPA receptors and GluK2 kainate receptor were kindly provided by Steve Heinemann. The GluA4 DNA plasmid was kindly provided by Peter Seeburg. The GluK1 plasmid was kindly provided by Geoffrey Swanson. The cDNAs of all three NMDA receptor subunits were gifts from John Woodward. All DNA plasmids were propagated using Escherichia coli host (DH5α) and purified using QIAGEN DNA purification kits.
All of the receptors were transiently expressed in HEK-2935 cell. HEK-293S cells were maintained in Dulbecco's modified Eagle's medium (DMEM) supplemented with 10% fetal bovine serum and 1% penicillin in a 37° C., 5% CO2, humidified incubator. Receptors were transiently transfected by using calcium phosphate or lipofectamine 2000 (Invitrogen). The DNA plasmids encoding green fluorescent protein (GFP) and T-antigen (TAg) were cotransfected in HEK-293S cells. GFP was used as a transfection marker for cell recording, and TAg was cotransfected to potentiate the receptor expression at the single-cell level (51). Transfected cells were allowed to grow for 48 hour before they were used for recording.
The procedure for whole-cell current recording to assay the inhibitory property of an RNA aptamer is known to those of skill in the art and has been previously described (47). […] The extracellular buffer composition is described above (see “Receptor Preparation”).

GluA1flip = GluA1flip (Rattus norvegicus, UniProt P19490); experiment: Subunit selectivity, whole-cell recording, GluA1; format: cell-based; conditions: closed- and open-channel glutamate concentrations
Procedure: The subunit selectivity of AF44/AF42 was assessed with individual subunits of AMPA, kainate and NMDA receptors expressed in HEK-293 cells, and was represented by A/A(I) value collected from whole-cell recording (FIG. 8A).
All of the receptors were transiently expressed in HEK-2935 cell. HEK-293S cells were maintained in Dulbecco's modified Eagle's medium (DMEM) supplemented with 10% fetal bovine serum and 1% penicillin in a 37° C., 5% CO2, humidified incubator. Receptors were transiently transfected by using calcium phosphate or lipofectamine 2000 (Invitrogen). The DNA plasmids encoding green fluorescent protein (GFP) and T-antigen (TAg) were cotransfected in HEK-293S cells. GFP was used as a transfection marker for cell recording, and TAg was cotransfected to potentiate the receptor expression at the single-cell level (51). […]
For recording of the NMDA channels, the intracellular solution contained (in mM) 140 CsCl, 1 MgCl2, 0.1 EGTA, and 10 HEPES (pH 7.2 adjusted by Mg(OH)2), while the extracellular solution contained (in mM) 135 NaCl, 5.4 KCl, 1.8 CaCl2, 10 glucose and 5 HEPES (pH 7.2 adjusted by NaOH). […] The whole-cell current was recorded using an Axopatch-200B amplifier at a cutoff frequency of 2-20 kHz by a built-in, eight-pole Bessel filter and digitized at 5-50 kHz sampling frequency using a Digidata 1322A from Axon Instruments (Molecular Devices, Sunnyvale, Calif.). […]

GluA2Qflip receptor = GluA2Qflip receptor (Rattus norvegicus, UniProt P19491); experiment: Homologous competition binding assay (cold vs hot aptamer); conditions: for binding to the receptor in the presence of NBQX: competitive inhibitor, data not shown; for Kd: triplicate data sets
Source text: (§1) In fact, in a homologous competition binding experiment (42) in which the non-radiolabeled aptamer (or cold aptamer) was used to compete against the same, but radiolabeled, aptamer (or hot aptamer), AF44 bound to not only the closed-channel conformation (i.e., the unliganded, closed-channel receptor form) but also the open-channel conformation (FIG. 10). […] The binding results were consistent with noncompetitive sites, because these sites were supposed to be accessible through both the closed- and the open-channel conformations. […] These sites were noncompetitive type because binding to the receptor by either AF44 or AF42 or the full length AF1422 was unaffected in the presence of NBQX, a classic competitive inhibitor.
as §1, with “inhibitor (data not shown).” for “inhibitor.”

[1] = open-channel GluA2Qflip, read-out: Kd, open-channel conformation
[2] = unliganded, closed-channel GluA2Qflip, read-out: Kd, closed-channel conformation

Sequence of GluA2Qflip receptor (P19491 22-883 isoform P19491-2 limits assumed): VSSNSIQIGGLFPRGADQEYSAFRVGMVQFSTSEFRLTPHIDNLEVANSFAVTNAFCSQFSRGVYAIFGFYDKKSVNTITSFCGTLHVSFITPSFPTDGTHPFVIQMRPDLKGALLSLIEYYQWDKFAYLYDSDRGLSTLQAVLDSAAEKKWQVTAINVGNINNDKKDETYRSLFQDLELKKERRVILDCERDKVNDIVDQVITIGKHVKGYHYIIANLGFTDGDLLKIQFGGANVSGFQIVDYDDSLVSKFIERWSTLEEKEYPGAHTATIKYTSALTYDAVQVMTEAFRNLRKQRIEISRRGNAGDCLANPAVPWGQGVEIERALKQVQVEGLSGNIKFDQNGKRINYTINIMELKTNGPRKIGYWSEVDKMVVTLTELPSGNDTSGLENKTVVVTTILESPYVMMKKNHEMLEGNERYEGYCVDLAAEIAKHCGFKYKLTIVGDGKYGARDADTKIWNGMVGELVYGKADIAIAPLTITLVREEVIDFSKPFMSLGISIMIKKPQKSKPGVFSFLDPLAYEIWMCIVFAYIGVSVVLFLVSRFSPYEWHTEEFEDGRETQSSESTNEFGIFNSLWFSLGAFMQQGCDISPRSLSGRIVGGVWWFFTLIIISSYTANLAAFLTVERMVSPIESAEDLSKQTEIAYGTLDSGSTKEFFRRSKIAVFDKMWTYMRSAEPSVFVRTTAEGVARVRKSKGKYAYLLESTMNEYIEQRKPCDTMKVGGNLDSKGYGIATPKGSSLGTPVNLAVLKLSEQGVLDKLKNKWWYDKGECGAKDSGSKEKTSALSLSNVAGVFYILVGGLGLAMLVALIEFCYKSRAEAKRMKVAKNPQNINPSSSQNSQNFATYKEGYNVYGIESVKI
Sequence of GluA2Qflip AMPA receptor (P19491 22-883 isoform P19491-2 limits assumed): as above
Sequence of GluA1flip (P19490 19-907 isoform P19490-2 limits assumed): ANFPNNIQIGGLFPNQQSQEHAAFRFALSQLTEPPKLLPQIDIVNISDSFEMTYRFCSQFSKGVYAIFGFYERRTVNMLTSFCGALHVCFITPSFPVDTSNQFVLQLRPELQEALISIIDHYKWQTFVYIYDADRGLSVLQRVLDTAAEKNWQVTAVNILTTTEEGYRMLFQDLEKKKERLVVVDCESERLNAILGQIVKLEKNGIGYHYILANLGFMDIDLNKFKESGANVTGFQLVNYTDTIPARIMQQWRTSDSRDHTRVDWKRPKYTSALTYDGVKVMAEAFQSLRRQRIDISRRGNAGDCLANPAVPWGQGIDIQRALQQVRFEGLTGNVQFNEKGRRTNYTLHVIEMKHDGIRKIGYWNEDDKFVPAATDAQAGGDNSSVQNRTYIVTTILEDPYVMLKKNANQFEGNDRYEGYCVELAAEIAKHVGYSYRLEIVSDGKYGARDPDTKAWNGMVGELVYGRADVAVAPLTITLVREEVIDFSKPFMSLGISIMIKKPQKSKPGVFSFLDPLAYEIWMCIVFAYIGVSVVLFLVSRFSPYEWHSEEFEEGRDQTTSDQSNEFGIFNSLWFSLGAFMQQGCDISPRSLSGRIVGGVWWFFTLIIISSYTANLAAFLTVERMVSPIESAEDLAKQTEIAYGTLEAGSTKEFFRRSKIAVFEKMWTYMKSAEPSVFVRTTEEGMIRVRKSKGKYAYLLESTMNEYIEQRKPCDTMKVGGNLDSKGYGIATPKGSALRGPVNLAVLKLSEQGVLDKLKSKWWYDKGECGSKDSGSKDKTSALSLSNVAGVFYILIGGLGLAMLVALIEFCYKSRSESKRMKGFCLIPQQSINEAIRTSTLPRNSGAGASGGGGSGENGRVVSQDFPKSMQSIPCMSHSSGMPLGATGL

Molecule: CNC(=O)N1N=C(c2ccc(N)cc2)c2cc3c(cc2CC1C)OCO3 (stereo not shown) [BDZ-f, 1-(4-aminophenyl)-3-methylcarbamoyl-4-methyl-7,8-methylenedioxy-3,4-dihydro-5H-2,3-benzodiazepine, reference compound]
- inhibition of the non-desensitizing phase of the receptor response (GluA2Qflip AMPA receptor; 0.1 mM glutamate, AF44/AF42 up to 12.5 μM, BDZ-f up to 20 μM): uninhibited
- inhibition of GluA2Qflip in the subunit selectivity test, A/A(I) (GluA2Qflip AMPA receptor; FIG. 8A/8B, two glutamate concentrations): inhibited
- Ki (GluA2Qflip AMPA receptor; KI for the closed-channel conformation, 100 μM glutamate, -60 mV, 22 °C): 3800 ± 400 nM
- Ki (GluA2Qflip AMPA receptor; KI for the open-channel conformation, 3 mM glutamate): 5400 ± 800 nM
- effect on GluA1, A/A(I) (GluA1flip): inhibited

Molecule: AF20: truncated AF1422 containing only the 5' stem loop, SEQ ID NO: 7 (GGGAGAAUUCAACUGCCAUC; listed as RNA, chemistry not fully specified)
- inhibition by A/A(I), ratio of whole-cell current amplitude in absence and presence of aptamer (GluA2Qflip AMPA receptor; 100 μM glutamate): not sufficient to act either alone as an inhibitor or together with AF42 as an inhibitory pair

Molecule: AF38: AF42 with terminal loop removed, SEQ ID NO: 6 (GGGUCGUUAGAGCAUCAGUACACCAACGGUGCGAGCCC; listed as RNA, chemistry not fully specified)
- inhibition by A/A(I), ratio of whole-cell current amplitude in absence and presence of aptamer (GluA2Qflip AMPA receptor; 100 μM glutamate): total loss of function

Molecule: AF42: 42-nucleotide RNA truncated from AF1422, SEQ ID NO: 5 (GGGAACGGUGCCAGUCCGAAACGGAUCGUUAGAGCAUCAGUA; listed as RNA, chemistry not given here)
- inhibition by A/A(I), ratio of whole-cell current amplitude in absence and presence of aptamer (GluA2Qflip AMPA receptor; 100 μM glutamate): did not render any inhibition
- binding to the receptor in the presence of NBQX (GluA2Qflip receptor): unaffected
- Kd (GluA2Qflip receptor; [1]): 44 ± 11 nM
- Kd (GluA2Qflip receptor; [2]): 57 ± 21 nM

Molecule: AF44: 44-nucleotide RNA truncated from AF1422, G22 replaced with A22, SEQ ID NO: 4 (GGGAGAAUUCAACUGCCACGGAUAAUAGCCAAUACUACAACCGU; listed as RNA, chemistry not given here)
- inhibition by A/A(I), ratio of whole-cell current amplitude in absence and presence of aptamer (GluA2Qflip AMPA receptor; 100 μM glutamate): did not render any inhibition
- binding to the receptor in the presence of NBQX (GluA2Qflip receptor): unaffected
- Kd (GluA2Qflip receptor; [1]): 48 ± 13 nM
- Kd (GluA2Qflip receptor; [2]): 44 ± 18 nM

B1: AF1422: RNA aptamer, SEQ ID NO: 1, most enriched SELEX sequence binding closed-channel GluA2Qflip (nucleic acid)
chain: GGGAGAAUUCAACUGCCAUCUAGGCAGAAGUGUAAUAGCCAACGGUGCCAGUCCGAAACGGAUCGUUAGAGCAUCAGUACUACAAGCUUCUGGACUCGGU
modifications: listed as RNA, chemistry not given here
- inhibition by A/A(I), ratio of whole-cell current amplitude in absence and presence of aptamer (GluA2Qflip AMPA receptor; 100 μM glutamate): one of the most potent inhibitors
- inhibition of closed-channel versus open-channel conformation (GluA2Qflip AMPA receptor; low (100 μM) vs high (3 mM) glutamate): inhibited the closed-channel, preferentially over the open-channel
- binding to the receptor in the presence of NBQX (GluA2Qflip receptor): unaffected

B2: AF78: truncated sequence of AF1422, SEQ ID NO: 3, lacking the 5' stem-loop (nucleic acid)
chain: GGGAGCCAGAAGUGUAAUAGCCAACGGUGCCAGUCCGAAACGGAUCGUUAGAGCAUCAGUACUACAAGCUUCUGGACU
modifications: listed as RNA, chemistry not fully specified
- inhibition by A/A(I), ratio of whole-cell current amplitude in absence and presence of aptamer (GluA2Qflip AMPA receptor; 100 μM glutamate): non-inhibitory
